Measurements as given in patent US20240156901A1, “GAL3BP POLYPEPTIDE COMPOSITIONS AND METHODS FOR TREATMENT OF CANCER AND DETERMINING TREATMENT RESPONSIVENESS” (UNIVERSITY OF PITTSBURGH-OF THE COMMONWEALTH SYSTEM OF …, priority 2021, published 2024).

Columns and labels:
Gal3/CHI3L1 = assay: Inhibition of Gal3/CHI3L1 by Gal3BP polypeptides; settings: SEQ ID NO: 4 as compared to SEQ ID NO: 5
[1] = tested on: bone-marrow derived macrophages (BMDMs); assay: Scratch-wound healing assay, BMDM migration; type: cell-based, mouse
Experimental: (§1) BMDMs were isolated from male and female C57BL/6 mice as previously described (Ying W et al., 2013). Briefly, femur bones were isolated from mice, and IMDM (ATCC) supplemented with 10% FBS and P/S was used to flush the bone marrow into a petri dish. After 4-6-hour incubation, the floating cells were collected and resuspended in the medium with 20 ng/mL M-CSF (PrproTech). On day 6, the fully differentiated cells were designated as an M0 state. To induce BMDM polarization toward an M1 state, 100 ng/mL LPS (Invitrogen) and 50 ng/mL IFNγ (PrproTech) were added to the M0 cells for 24 hours. To induce BMDM polarization toward an M2 state, 20 ng/mL IL-4 (PrproTech) was added to the M0 cells for 72 hours.
BMDM were polarized to the indicated status (M0, M1, or M2) and seeded in 12-well plates at 80-90% confluency. The cells were switched to the medium without FBS for 6 hours of starvation. Scratches were made using pipettor tips and fresh IMDM with indicated recombinant proteins and/or peptides were added. Images of the scratches were captured at indicated times. For the SIM-A9 scratch-wound healing assay, 12-well plates were coated with 10 μg/mL fibronectin (Sigma-Aldrich) at 37° C. overnight before seeding cells.

[2] = tested on: GL261-CHI3L1 orthotopic tumors; assay: Peptide treatment of GL261-CHI3L1 orthotopic tumors (MRI, survival)
Experimental: (§2) Male and female ICR SCID and C57BL/6 mice (4-6 weeks of age) were purchased from Taconic Biosciences and The Jackson Laboratory, respectively. The intracranial xenograft tumor models were established as previously described (Hu B et al., 2016). Cells in 5 μL DPBS were injected at the following numbers: TS543 vector control or CHI3L1 overexpression (OE), 1×10^4 cells; QPP7 scrambled control or CHI3L1 knockdown (KD), 1×10^5 cells; and GL261 vector control or CHI3L1 OE, 1×10^5 cells. […] For mice treated with peptides, 5 uL of 20 uM SCP or GMP was delivered into the mouse brain every 4 days with a total of seven times.
(§3) MRI and bioluminescent imaging of mice were performed at Rangos Research Center Animal Imaging Core. The tumor size of mice detected by MRI was analyzed with ITK-SNAP.
For intracranial xenograft tumor models treated with peptides, mice were implanted with a guide screw prior to intracranial injection. To install the screw, mice were anesthetized by intraperitoneal (IP) injection with ketamine/xylazine solution (1.75 mL of 100 mg/mL ketamine and 0.25 mL of 100 mg/mL xylazine in 8 mL sterile water) at a dosage of 100 μL/20 g body weight. The screw was covered by sealing the skin, and mice were allowed to recover for one week before intracranial implantation. GL261 cells overexpressing CHI3L1 (1×10^5) were injected in 5 μL of DPBS containing 20 μM of either scrambled control peptide (SCP) or Gal3BP mimetic peptide (GMP). SCP (20 μM) or GMP (20 μM) was subsequently given once every 3 days with a total of seven times by intracranial injection via the guide screw.
(§4) All mice received general inhalation anesthesia with Isoflurane for in vivo brain imaging. […] Depth of anesthesia was monitored by toe reflex (extension of limbs, spine positioning) and respiration rate. […] Respiration was monitored using a pneumatic sensor placed between the animal bed and the mouse's abdomen, rectal temperature was measured with a fiberoptic sensor, and core temperature was maintained at 36.8±0.2° C. with a feedback-controlled warm air source (SA Instruments). […]

GL261-CHI3L1 glioma = assay: Flow cytometry of immune cell populations in GL261-CHI3L1 glioma after peptide treatment; type: in vivo, mouse
Experimental: Mice with neurological deficits or moribund appearance were sacrificed. Tumors were separated and homogenized for 15 min at 37° C. in Collagenase IV Cocktail (3.2 mg/mL collagenase type IV, 2 mg/mL soybean trypsin inhibitor, and 1.0 mg/mL deoxyribonuclease I; Worthington Biochemical). Red blood cells were lysed using ACK lysing buffer (Gibco). Cell suspensions were filtered through 70-μm strainers, centrifuged, and resuspended in cold FACS buffer (DPBS with 1% BSA) for further analysis.
About 3×10^6 cells were used for each staining panel. Cells were incubated with 1.0 μg of TruStain fcX (BioLegend) for 10 min on ice to block Fc receptors, followed by staining with the combination of indicated antibodies. After staining, cells were washed with FACS buffer three times and incubated with Fixation Buffer (BioLegend) at RT for 20 min. Cells were washed with FACS buffer, resuspended in Cyto-Last Buffer (BioLegend), and analyzed by either a BD LSRFortessa or BD FACSAria II SORP. For CyTOF, samples were prepared as described above for flow cytometry. Three pairs of samples (scrambled shRNA vs Chi3l1 KD) with similar tumor sizes were chosen and the staining procedure was followed as previously described (Mitsialis V, et al., 2020). The samples were analyzed on a Helios2 CyTOF system (Fluidigm) at the Longwood Medical Area CyTOF Core. Additional information about flow cytometry antibodies is provided in the Supplementary Material and Methods section.

[3] = target: T1, binding of CHI3L1 and Gal3 (Homo sapiens, UniProt P36222); assay: Co-IP with Gal3 antibody in THP-1 cells treated with peptides; settings: 20 μM for 24 hours
T1 construct: endogenous in cells; host or cells: THP-1 cells
Experimental: TS603 cells overexpressing CHI3L1 with V5 tag (TS603 CHI3L1_V5_OE) or THP-1 cells treated with the peptides were collected and protein-protein interaction was crosslinked with 2 mM Dithiobis (succinimidyl propionate, DSP). Membrane proteins were extracted with the Membrane Protein Extraction Kit (ThermoFisher, Cat #89842) and ˜500 μg of protein was used for Co-IP assay by the Co-Immunoprecipitation Kit (ThermoFisher, Cat #26149).
(§5) For in vivo THP-1 cell or in vitro recombinant protein Co-IP experiments, additional following antibodies were used: Mouse anti-CHI3L1 (Santa Cruz Biotechnology, Cat #SC-393590), Rat anti-Galectin-3 (Santa Cruz Biotechnology, Cat #SC-23938), anti-Galectin-3BP (Santa Cruz Biotechnology, Cat #SC-374541), Rabbit anti-CHI3L1 (Cell Signaling Technology, Cat #47066), and Rat IgG (BioXCell, Cat #BE0090).

QPP7 glioma = assay: Peptide treatment of orthotopic syngeneic QPP7 glioma (MRI, survival); settings: orthotopic syngeneic mice bearing QPP7 glioma; local delivery into the brain; vs SCP
Experimental: as §2, §3
For intracranial xenograft tumor models treated with peptides, mice were implanted with a guide screw prior to intracranial injection. […]
as §4

[4] = tested on: Arg1, Ym1, Ccl2, Il10 gene expression; assay: qRT-PCR of immune suppression genes in M0 BMDMs; type: cell-based, mouse; settings: rCHI3L1 2.5 μg/mL, rGal3 2.5 μg/mL, rGal3BP 5.0 μg/mL, 24 hours
Experimental: as §1
RNA was extracted and cDNA was synthesized as described previously (Hu B et al., 2016). qRT-PCR was performed using PowerSYBR Green PCR Master Mix (Applied Biosystems) and detected with a StepOnePlus Real-Time PCR System (Applied Biosystems). Each reaction was performed in duplicate or triplicate. The relative expression of genes was normalized to human RPL39 or mouse 18S ribosomal RNA. For RNA-seq experiments, cells from intracranial xenograft tumors were isolated and incubated with antibodies for immune cell types. Macrophages were isolated by FACS and RNA was then isolated and sent to Health Sciences Sequencing Core at UPMC Children's Hospital of Pittsburgh for RNA-seq. […]

PI3K/AKT/mTOR pathway = assay: Immunoblot of PI3K/AKT/mTOR signaling and transcription factors in M0 BMDMs; type: cell-based, mouse; settings: 30 minutes
Experimental: Cells were lysed on ice using RIPA buffer (Millipore) supplemented with protease and phosphatase inhibitors (Roche). The protein concentration was determined by the BCA method and 15˜30 ug of total proteins were loaded and analyzed by Western blotting with indicated antibodies. For IHC staining, brain tissues were fixed in 10% formalin overnight and embedded in paraffin. For IF staining, fresh brain tissues were immediately frozen in OCT on dry ice. IHC and IF staining were performed as we described previously (Hu B et al., 2016). Additional information about antibodies is provided in the Supplementary Material and Methods section
Immunoblotting (IB), Immunohistochemistry (IHC), and Immunofluorescence (IF). […]

[5] = tested on: bone-marrow derived macrophages (BMDMs); assay: Transwell migration assay, BMDM migration; type: cell-based, mouse; settings: rCHI3L1 2.5 μg/mL, rGal3BP 5.0 μg/mL
Experimental: as §1
Polarized BMDMs were starved by removing FBS for 6 hours. Cells were collected and 2×10^5 cells in 200 μL of IMDM were added into each transwell insert (Millipore, Cat #MCMP24H48). 700 μL of IMDM containing 2% FBS and the indicated recombinant proteins was added to the bottom of the plates. After 14-hour incubation, transwell inserts were stained with HEMA 3 Stain Set (Fisher Scientific). Insert membranes were separated and mounted on glass slides with CYTOSEAL XYL (ThermoFisher) and images were taken by an inverted microscope (Leica DM 2500). For the SIM-A9 cells, the inserts were coated with 10 μg/mL fibronectin overnight in advance of seeding cells.

[6] = target: T2, Gal3 and CHI3L1 protein binding (Homo sapiens, UniProt P36222); assay: In vitro recombinant protein Co-IP competition (rGal3 + rCHI3L1 + increasing rGal3BP); settings: 200 ng rGal3+200 ng rCHI3L1; rGal3BP 0-800 ng/sample; with or without TD139
T2 construct: purchased R&D Systems 2599-CH-050 (CHI3L1); 8259-GA-050 (Galectin-3)
Description: as §5

[7] = GL261-CHI3L1 tumors, GMP in contrast to SCP
[8] = GMP-treated vs SCP-treated tumors, GL261-CHI3L1 model

T2 sequence (P36222 22-383): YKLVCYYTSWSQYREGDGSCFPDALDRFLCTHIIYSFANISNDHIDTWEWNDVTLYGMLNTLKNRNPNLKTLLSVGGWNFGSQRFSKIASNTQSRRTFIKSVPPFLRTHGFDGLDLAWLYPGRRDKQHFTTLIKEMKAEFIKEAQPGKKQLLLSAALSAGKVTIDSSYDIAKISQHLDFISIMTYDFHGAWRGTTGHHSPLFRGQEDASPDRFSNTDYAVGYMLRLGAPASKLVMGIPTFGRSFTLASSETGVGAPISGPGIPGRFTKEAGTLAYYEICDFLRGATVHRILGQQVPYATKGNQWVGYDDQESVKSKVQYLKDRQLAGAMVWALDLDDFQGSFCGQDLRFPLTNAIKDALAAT
T1 sequence (P36222 22-383): as above

TLDLSRELSEALGQI [GMP]
inhibition of Gal3/CHI3L1 (Gal3/CHI3L1): increased inhibition | rCHI3L1-induced BMDM migration, dose dependence ([1]; M2 BMDMs, rCHI3L1 0.6 μg/mL, different concentrations of peptide, 6 hours): inhibits rCHI3L1-induced BMDM migration in a dose-dependent manner | rCHI3L1-promoted M2 BMDM migration ([1]; rCHI3L1 0.6 μg/mL, peptide 30 μM, compared with SCP): significantly inhibited | rCHI3L1+rGal3-induced M0 BMDM migration ([1]; rCHI3L1 2.5 μg/mL, rGal3 2.5 μg/mL, peptide 30 μM, in contrast to SCP): attenuated | tumor growth (T2 MRI) ([2]; C57BL/6 mice bearing GL261-CHI3L1, GMP compared to SCP): reduced tumor growth | median survival ([2]; C57BL/6 mice bearing GL261-CHI3L1 orthotopic tumors, 20 μM peptide into brain tumor via guide screw): 36 days | CD8+ cells (GL261-CHI3L1 glioma; [7]): significantly increased | T cells (CD3+) (GL261-CHI3L1 glioma; [7]): significantly increased | PD-L1 expression in CD45+, CD8+ and CD4+ cells (GL261-CHI3L1 glioma; GMP treatment): only a decreasing trend | PD-L1 expression in glioma cells (GL261-CHI3L1 glioma; GMP treatment): significantly decreased | CTLA-4 level in CD4+ T cells (GL261-CHI3L1 glioma; GMP vs SCP): a trend of elevated levels | PD-1 level in CD4+ T cells (GL261-CHI3L1 glioma; GMP vs SCP): a trend of elevated levels | CTLA-4 expression in CD8+ T cells (GL261-CHI3L1 glioma; [8]): significantly upregulated | PD-1 expression in CD8+ T cells (GL261-CHI3L1 glioma; [8]): significantly upregulated | PD-L1 expression in CD45+, CD8+ immune cells, and glioma cells (GL261-CHI3L1 glioma; preclinical mouse models, as restated in Example 8): significantly decrease | CD4+ cell population (GL261-CHI3L1 glioma; tumors of C57BL/6 mice bearing GL261-CHI3L1): 41.9±4.5% | M2-like TAMs (GL261-CHI3L1 glioma; tumors of C57BL/6 mice bearing GL261-CHI3L1, mean±SEM, P=0.0536): 42.8±3.8% | M1-like TAMs (GL261-CHI3L1 glioma; tumors of C57BL/6 mice bearing GL261-CHI3L1, mean±SEM, P=0.0719): 49.5±4.0% | binding of CHI3L1 and Gal3 (Co-IP) [3]: decreasing binding of CHI3L1 and Gal3 | mouse survival (QPP7 glioma): increased mouse survival | tumor size (QPP7 glioma): decreased tumor size

B1: rGal3BP: recombinant Gal3BP protein; Galectin-3-binding protein, monomer PDB 6GFB used for docking (protein)
chain: VNDGDMRLADGGATNQGRVEIFYRGQWGTVCDNLWDLTDASVVCRALGFENATQALGRAAFGQGSGPIMLDEVQCTGTEASLADCKSLGWLKSNCRHERDAGVVCTNETRSTHTLDLSRELSEALGQIFDSQRGCDLSISVNVQGEDALGFCGHTVILTANLEAQALWKEPGSNVTMSVDAECVPMVRDLLRYFYSRRIDITLSSVKCFHKLASAYGARQLQGYCASLFAILLPQDPSFQMPLDLYAYAVATGDALLEKLCLQFLAWNFEALTQAEAWPSVPTDLLQLLLPRSDLAVPSELALLKAVDTWSWGERASHEEVEGLVEKIRFPMMLPEELFELQFNLSLYWSHEALFQKKTLQALEFHTVPFQLLARYKGLNLTEDTYKPRIYTSPTWSAFVTDSSWSARKSQLVYQSRRGPLVKYSSDYFQAPSDYRYYPYQSFQTPQHPSFLFQDKRVSWSLVYLPTIQSCWNYGFSCSSDELPVLGLTKSGGSDRTIAYENKALMLCEGLFVADVTDFEGWKAAIPSALDTNSSKSTSSFPCPAGHFNGFRTVIRPFYLTNSSGVD
expression of genes related to anti-inflammation (Arg1, Ym1, Ccl2, Il10) [4]: significantly inhibited | rCHI3L1-induced M2 BMDM migration ([1]; rCHI3L1 2.5 μg/mL, rGal3BP 5.0 μg/mL, scratch-wound healing): significantly attenuated | levels of p-AKT (T473 and S308), p-S6, and p-mTOR (PI3K/AKT/mTOR pathway): inhibited | rCHI3L1-induced M2 BMDM migration [5]: significantly attenuated | competition with Gal3 for binding CHI3L1 (Co-IP) [6]: compete for the same binding site in CHI3L1
